These results are taken from patent US9174974B2, “Macrocyclic factor VIIa inhibitors” (BRISTOL-MYERS SQUIBB COMPANY, priority 2012, dated 2015).

One test addresses human FVIIa (Homo sapiens (Human), UniProt P08709). The experiment in a line: FVIIa Ki (37° C.), FVIIa-Xase assay. It is filed as biochemical. Particulars: for Ki: read-out: FVIIa Ki, nM 37° C.; for Ki(HK1)/Ki(FVIIa): selectivity ratio, tissue kallikrein (HK1) vs FVIIa.
For a further test, the target named is tissue kallikrein (HK1) (Homo sapiens (Human), UniProt P06870). The experiment in a line: Tissue kallikrein-1 (HK1) Ki, fluorogenic substrate assay. Particulars: 37° C. It is filed as biochemical.
Chain of tissue kallikrein (HK1) (P06870 25-262): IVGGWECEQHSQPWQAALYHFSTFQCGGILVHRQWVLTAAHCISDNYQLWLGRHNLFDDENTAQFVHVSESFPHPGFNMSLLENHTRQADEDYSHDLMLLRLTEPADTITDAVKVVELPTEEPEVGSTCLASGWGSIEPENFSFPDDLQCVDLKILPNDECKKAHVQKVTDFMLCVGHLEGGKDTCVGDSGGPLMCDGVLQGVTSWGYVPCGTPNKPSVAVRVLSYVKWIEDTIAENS

Broadly, the Ki is a measure of affinity in units of concentration, obtained from inhibition or displacement.

Some results are limits rather than exact numbers.

Chain of human FVIIa (P08709 61-212): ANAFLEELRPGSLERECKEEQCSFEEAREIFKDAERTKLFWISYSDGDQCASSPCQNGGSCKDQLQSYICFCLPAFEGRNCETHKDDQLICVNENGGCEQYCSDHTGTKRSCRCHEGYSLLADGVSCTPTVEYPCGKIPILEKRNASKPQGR
Chain of human FVIIa (P08709 213-466): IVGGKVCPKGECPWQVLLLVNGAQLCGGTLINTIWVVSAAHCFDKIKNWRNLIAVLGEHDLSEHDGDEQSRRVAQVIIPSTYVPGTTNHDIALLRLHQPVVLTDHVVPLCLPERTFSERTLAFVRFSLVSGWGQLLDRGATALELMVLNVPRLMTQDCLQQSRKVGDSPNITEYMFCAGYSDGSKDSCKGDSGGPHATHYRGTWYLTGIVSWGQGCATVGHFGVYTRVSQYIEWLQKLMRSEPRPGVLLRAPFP
Chain of human FVIIa (P13726 33-295 partner): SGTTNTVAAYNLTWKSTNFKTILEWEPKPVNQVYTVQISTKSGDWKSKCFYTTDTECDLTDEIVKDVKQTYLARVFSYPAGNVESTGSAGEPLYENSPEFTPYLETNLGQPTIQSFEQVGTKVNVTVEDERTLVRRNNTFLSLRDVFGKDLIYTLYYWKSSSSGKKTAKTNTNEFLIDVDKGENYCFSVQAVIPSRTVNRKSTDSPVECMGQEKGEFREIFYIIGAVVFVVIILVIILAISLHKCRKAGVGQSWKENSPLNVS

With `Cc1cc2ccc1[C@@H](C)COC(=O)Nc1cc(F)c(OC[C@H](O)C3CC3)c(c1)CN(C)C(=O)[C@@H]2Nc1ccc2c(N)nccc2c1.O=C(O)C(F)(F)F` (stereo in doubt) [Example 21, (2R,15R)-2-[(1-Aminoisoquinolin-6-yl)amino]-7-[(2S)-2-cyclopropyl-2-hydroxyethoxy]-8-fluoro-4,15,20-trimethyl-13-oxa-4,11-diazatricyclo[14.2.2.16,10]henicosa-1(18),6,8,10 (21),16,19-hexaene-3,12-dione; trifluoroacetic acid], the Ki is 0.34 nM at human FVIIa and 550 nM on tissue kallikrein (HK1). The “Ki(HK1)/Ki(FVIIa)” value on human FVIIa stood at 1618.
The like results for `Cc1cc2ccc1[C@@H](C)COC(=O)Nc1ccc(S(=O)(=O)C(C)(C)C)c(c1)CN(C)C(=O)[C@@H]2Nc1ccc2c(N)nccc2c1.O=C(O)C(F)(F)F` (stereo in doubt) [Example 22, (15R)-2-[(1-Aminoisoquinolin-6-yl)amino]-4,15,17-trimethyl-7-(2-methylpropane-2-sulfonyl)-13-oxa-4,11-diazatricyclo[14.2.2.1^6,10]henicosa-1(18),6,8,10 (21),16,19-hexaene-3,12-dione; trifluoroacetic acid] were, in that order, 0.31 nM, 780 nM and 2516.
The like results for `CC(C)S(=O)(=O)c1ccc2cc1CN(C)C(=O)[C@H](Nc1cc(F)c3c(N)nccc3c1)c1ccc(cc1)CCOC(=O)N2` [Comparator 1, reference compound] were, in that order, 38 nM, 3330 nM and 87.
`CCS(=O)(=O)c1ccc2cc1CNC(=O)[C@H](Nc1ccc3c(N)nccc3c1)c1ccc(cc1)CCOC(=O)N2` [Comparator 2, reference compound]: the Ki at human FVIIa came out at 11 nM; on tissue kallikrein (HK1), 110 nM. Besides, the “Ki(HK1)/Ki(FVIIa)” value at human FVIIa came to 10.
The like results for `CCS(=O)(=O)c1ccc2cc1CNC(=O)[C@H](Nc1ccc3c(N)nccc3c1)c1cc(C)c(c(C)c1)CCOC(=O)N2` [Comparator 3, reference compound] were, in that order, 1.1 nM, 70 nM and 64.
`C[C@H]1COC(=O)Nc2cccc(c2)CNC(=O)C(Nc2ccc3c(N)nccc3c2)c2ccc1cc2` (stereo partly drawn) [Comparator 4, reference compound]: the Ki at human FVIIa was more than 140 nM.
Regarding `Cc1cc2cc(C)c1CC(O)CC(=O)Nc1ccc(S(=O)(=O)C3CC3)c(c1)CN(C)C(=O)[C@@H]2Nc1ccc2c(N)ncc(F)c2c1.O=C(O)C(F)(F)F` (stereo partly drawn) [Example 2, (2R)-2-[(1-Amino-4-fluoroisoquinolin-6-yl)amino]-7-(cyclopropanesulfonyl)-14-hydroxy-4,17,20-trimethyl-4,11-diazatricyclo[14.2.2.1^6,10]henicosa-1(18),6,8,10 (21),16,19-hexaene-3,12-dione; trifluoroacetic acid], on human FVIIa, the inhibition constant (Ki) came to 2.3 nM and the “Ki(HK1)/Ki(FVIIa)” value turned out to be 704. Besides, at tissue kallikrein (HK1), the Ki turned out to be 1620 nM.
As to `CCS(=O)(=O)c1ccc2cc1CN(C)C(=O)[C@H](Nc1ccc3c(N)ncc(F)c3c1)c1ccc(c(C)c1)[C@@H](C)COC(=O)N2.O=C(O)C(F)(F)F` [Example 3, (2R,15R)-2-[(1-Amino-4-fluoroisoquinolin-6-yl)amino]-7-(ethanesulfonyl)-4,15,17-trimethyl-13-oxa-4,11-diazatricyclo[14.2.2.1^6,10]henicosa-1(18),6,8,10 (21),16,19-hexaene-3,12-dione; trifluoroacetic acid], at human FVIIa, the Ki worked out at 2.3 nM and the “Ki(HK1)/Ki(FVIIa)” value stood at 117. This compound registered a Ki on tissue kallikrein (HK1) of 270 nM.
Regarding `CCN(Cc1nccs1)C(=O)c1ccc2cc1CN(C)C(=O)[C@H](Nc1ccc3c(N)nccc3c1)c1cc(C)c(c(C)c1)C(F)(F)COC(=O)N2.O=C(O)C(F)(F)F` [Example 4, (2R)-2-[(1-Aminoisoquinolin-6-yl)amino]-N-ethyl-15,15-difluoro-4,17,20-trimethyl-3,12-dioxo-N-(1,3-thiazol-2-ylmethyl)-13-oxa-4,11-diazatricyclo[14.2.2.1^6,10]henicosa-1(18),6,8,10 (21),16,19-hexaene-7-carboxamide; trifluoroacetic acid], on tissue kallikrein (HK1), the affinity corresponds to a Ki of 300 nM.
`Cc1cc2cc(C)c1C(F)(F)COC(=O)Nc1ccc(S(=O)(=O)C3CC3)c(c1)CN(C)C(=O)[C@@H]2Nc1ccc2c(N)nccc2c1.O=C(O)C(F)(F)F` [Example 5, (2R)-2-[(1-Aminoisoquinolin-6-yl)amino]-7-(cyclopropanesulfonyl)-15,15-difluoro-4,17,20-trimethyl-13-oxa-4,11-diazatricyclo[14.2.2.1^6,10]henicosa-1(18),6,8,10 (21),16,19-hexaene-3,12-dione; trifluoroacetic acid]: the values for the inhibition constant (Ki) on human FVIIa and at tissue kallikrein (HK1) were 2 nM and 290 nM, respectively. Moreover, on human FVIIa, the “Ki(HK1)/Ki(FVIIa)” value came out at 145.
In the case of `COC[C@H](C)S(=O)(=O)c1ccc2cc1CN(C)C(=O)[C@H](Nc1ccc3c(N)ncc(F)c3c1)c1ccc(c(C)c1)[C@@H](C)COC(=O)N2.O=C(O)C(F)(F)F` [Example 6, (2R,15R)-2-[(1-Amino-4-fluoroisoquinolin-6-yl)amino]-7-[(2S)-1-methoxypropane-2-sulfonyl]-4,15,17-trimethyl-13-oxa-4,11-diazatricyclo[14.2.2.1^6,10]henicosa-1(18),6,8,10 (21),16,19-hexaene-3,12-dione; trifluoroacetic acid], at human FVIIa, the inhibition constant (Ki) amounted to 1.8 nM and the “Ki(HK1)/Ki(FVIIa)” value came out at 306. At tissue kallikrein (HK1), this compound came in with a Ki of 550 nM.
The like results for `Cc1cc2ccc1[C@@H](C)COC(=O)Nc1ccc(C(=O)N3CCC3)c(c1)CN(C)C(=O)[C@@H]2Nc1ccc2c(N)nccc2c1.O=C(O)C(F)(F)F` [Example 7, (2R,15R)-2-[(1-Aminoisoquinolin-6-yl)amino]-7-(azetidine-1-carbonyl)-4,15,17-trimethyl-13-oxa-4,11-diazatricyclo[14.2.2.16,10]henicosa-1(18),6,8,10 (21),16,19-hexaene-3,12-dione; trifluoroacetic acid] were, in that order, 1.2 nM, 525 and 630 nM.
For the compound `Cc1cc2ccc1[C@@H](C)COC(=O)Nc1ccc(S(=O)(=O)C(C)C)c(c1)CN(C)C(=O)[C@@H]2Nc1ccc2c(N)ncc(F)c2c1.O=C(O)C(F)(F)F` [Example 8, (2R,15R)-2-[(1-Amino-4-fluoroisoquinolin-6-yl)amino]-4,15,17-trimethyl-7-(propane-2-sulfonyl)-13-oxa-4,11-diazatricyclo[14.2.2.1^6,10]henicosa-1(18),6,8,10 (21),16,19-hexaene-3,12-dione; trifluoroacetic acid], on human FVIIa, the Ki is 1.2 nM and the “Ki(HK1)/Ki(FVIIa)” value stood at 583. Also, the inhibitory constant (Ki) on tissue kallikrein (HK1) amounted to 700 nM.
The like results for `Cc1cc2ccc1[C@@H](C)COC(=O)Nc1ccc([C@@H](CC(F)F)C(=O)O)c(c1)CN(C)C(=O)[C@@H]2Nc1ccc2c(N)ncc(F)c2c1.O=C(O)C(F)(F)F` [Example 10, (2R)-2-[(2R,15R)-2-[(1-Amino-4-fluoroisoquinolin-6-yl)amino]-4,15,17-trimethyl-3,12-dioxo-13-oxa-4,11-diazatricyclo[14.2.2.1^6,10]henicosa-1(18),6,8,10 (21),16,19-hexaen-7-yl]-4,4-difluorobutanoic acid; trifluoroacetic acid] were, in that order, 0.9 nM, 356 and 320 nM.
With `Cc1cc2ccc1[C@@H](C)COC(=O)Nc1cc(F)c(S(=O)(=O)C3CC3)c(c1)CN(C)C(=O)[C@@H]2Nc1cc(F)c2c(N)nccc2c1.O=C(O)C(F)(F)F` [Example 11, (2R,15R)-2-[(1-Amino-8-fluoroisoquinolin-6-yl)amino]-7-(cyclopropanesulfonyl)-8-fluoro-4,15,17-trimethyl-13-oxa-4,11-diazatricyclo[14.2.2.1^6,10]henicosa-1(18),6,8,10 (21),16,19-hexaene-3,12-dione; trifluoroacetic acid], the values for the inhibition constant Ki on human FVIIa and on tissue kallikrein (HK1) were 0.66 nM and 96 nM, respectively. Further, the “Ki(HK1)/Ki(FVIIa)” value on human FVIIa is 145.
The like results for `CC[C@@H](C(=O)O)c1ccc2cc1CN(C)C(=O)[C@H](Nc1ccc3c(N)ncc(F)c3c1)c1ccc(c(C)c1)[C@@H](C)COC(=O)N2.O=C(O)C(F)(F)F` [Example 13, (2R)-2-[(2R,15R)-2-[(1-Amino-4-fluoroisoquinolin-6-yl)amino]-4,15,17-trimethyl-3,12-dioxo-13-oxa-4,11-diazatricyclo[14.2.2.1^6,10]henicosa-1(18),6,8,10 (21),16,19-hexaen-7-yl]butanoic acid; trifluoroacetic acid] were, in that order, 0.61 nM, 380 nM and 623.
Consider `Cc1cc2ccc1[C@@H](C(F)F)COC(=O)Nc1ccc(S(=O)(=O)C3CC3)c(c1)CN(C)C(=O)[C@@H]2Nc1ccc2c(N)nccc2c1.O=C(O)C(F)(F)F` [Example 16, (2R,15R)-2-[(1-Aminoisoquinolin-6-yl)amino]-7-(cyclopropanesulfonyl)-15-(difluoromethyl)-4,17-dimethyl-13-oxa-4,11-diazatricyclo[14.2.2.1^6,10]henicosa-1(18),6,8,10 (21),16,19-hexaene-3,12-dione; trifluoroacetic acid], for which, on human FVIIa, the inhibition constant Ki amounted to 0.5 nM and the “Ki(HK1)/Ki(FVIIa)” value came to 360. The compound further came in with a Ki on tissue kallikrein (HK1) of 180 nM.
Consider `Cc1cc2ccc1[C@@H](CF)COC(=O)Nc1ccc(S(=O)(=O)C3CC3)c(c1)CN(C)C(=O)[C@@H]2Nc1ccc2c(N)nccc2c1.O=C(O)C(F)(F)F` [Example 24, (2R,15R)-2-[(1-Aminoisoquinolin-6-yl)amino]-7-(cyclopropanesulfonyl)-15-(fluoromethyl)-4,17-dimethyl-13-oxa-4,11-diazatricyclo[14.2.2.1^6,10]henicosa-1(18),6,8,10 (21),16,19-hexaene-3,12-dione; trifluoroacetic acid], for which the Ki on tissue kallikrein (HK1) is 200 nM.
